The values that follow come from patent US20260034161A1, “2-HYDROXYPROPYL-BETA-CYCLODEXTRIN AS A CANCER THERAPY NEOADJUVANT OR ADJUVANT” (University of the Witwatersrand, Johannesburg, priority 2022, published 2026).

Entries after “also recorded” stand apart in the source; their conditions may differ.

For series [1], the system named is NMuMg cells. Description: Immunofluorescence of EMT markers E-cadherin and vimentin in NMuMg cells. In kind it is cell-based, mouse. As for the experimental part:
(§1) Three different mechanisms of action were used to induce EMT in breast and colorectal adenocarcinoma cell lines. Breast cancer MCF-7 cells were treated with 150 micromolar (μM) cobalt chloride (CoCl2) for 48 hours. Initially, a working stock solution of 2500 μM COCl2 was prepared by dilution in distilled water. The resulting solution was further diluted upon administration to cells cultured in cell culture media. Cell culture media composition: Dulbecco's Modified Eagle's Medium (DMEM) (Sigma Aldrich, UK) supplemented with 10% foetal bovine serum (FBS) (Celtic Molecular Diagnostics, SA) and 1% Penicillin-Streptomycin (Sigma Aldrich, UK). NMuMg cells (a normal mouse mammary cell line) were treated with 10 nanograms/millilitre of transforming growth factor beta 1 (TGF-β) for 48 hours. A stock solution of TGF-β was prepared by reconstituting 2 μg of recombinant TGF-β at 20 μg/mL in sterile 4 mM HCl containing 1 mg/mL of bovine serum albumin (BSA) diluted in water. NMuMG cells were cultured in Dulbecco's Modified Eagle Medium (DMEM) (ThermoFisher Scientific, USA), supplemented with 10% FBS, 1% Penicillin-Streptomycin, 1% GlutaMAX, and 10 μg/mL insulin. Colorectal cancer HT-29 cells were treated with 50 nanograms/millilitre of interleukin-6 (IL-6) for 24 hours. A working stock solution of 1 micrograms/millilitre of IL-6 was prepared by dilution in 0.1% BSA in phosphate-buffered saline (PBS). The resulting solution was further diluted upon administration to cells cultured in cell culture media. […]
(§2) Protein expression of EMT molecular markers in control and CoCl2, TGF-β and IL-6 treated cells was detected by employing immunofluorescence microscopy. […] E-cadherin expression was detected by Alexa Fluor 488 staining (green) while nuclei were stained with DAPI (blue) (FIG. 1). Vimentin expression was detected by Texas Red staining (red) while nuclei were stained with DAPI (blue) (FIG. 2). […]
(§3) Methyl-β-cyclodextrin (MβCD) was employed as a positive control, as it is a well-documented cholesterol depletory agent. […] Immunofluorescence intensity was quantified by utilising the ImageJ software (NIH, USA). Cells of interest and background fluorescence was analysed by considering the following parameters: area, integrated density and mean grey value. Corrected total cellular fluorescence was calculated as follows: CTCF=Integrated Density−(Area of selected cell×Mean fluorescence of background readings).
(§4) The protein expression of E-cadherin following treatment with various cholesterol targeting agents in MCF-7, NMuMg, and HT-29 cells, pre- and post-EMT induction was investigated. E-cadherin expression was determined by Alexa Fluor 488 staining (green) while nuclei were stained with DAPI (blue). […]

A further series concerns MCF-7 cells. Nature of the series: Immunofluorescence of EMT markers E-cadherin and vimentin in MCF-7 cells. In kind it is cell-based. The protocol:
as §1, §2, §3, §4

Series [2] can be described thus: Tolerability of treatments in tumour-bearing NOD/SCID mice. In kind it is in vivo. As for the experimental part:
(§5) In order to investigate the in vivo application of HPβCD as an anti-cancer agent for colorectal cancer (CRC) using NOD/SCID mice, 24 NOD/SCID mice (5-8 weeks old) were injected with 4×10^6 HT-29 cells (suspended in 10% McCoy's media and 1×PBS), until tumours developed. Once tumours reached a size of 150-200 mm^3 (1-2 weeks), treatments (12 treatments in total for each group, however only up to 6 treatments for the OXAL treated group due to obvious toxicity) were given. Treatment groups consisted of 4 mice each and included a control group (injected with 1×PBS), a group treated with HPβCD, a group treated with Oxaliplatin (OXAL) only, a group treated with 5-Fluorouracil (5FU) only, a group treated with HPβCD and OXAL and lastly a group treated with HPβCD and 5FU. Mice were intraperitoneally injected with 3 000 mg/kg of HPβCD, 10 mg/kg of OXAL and 30 mg/kg of 5FU thrice a week for 4 weeks. For combination treatments HPβCD was administered with either 5FU or OXAL chemotherapy. Mice were weighed three times a week and averages were calculated to show per week weights. When mice were euthanized, serum was collected from whole blood samples and this was further used to test cholesterol levels, as well as Aspartate aminotransferase (AST) and Alanine aminotransferase (ALT) as a measure for liver toxicity. They were then perfused and all organs, including tumours, were harvested. All organs were snap frozen and stored at −80° C. Tumour samples were further stored in 10% neutral buffered formalin (4° C.) and RNA Later (−80° C.).

Series [3] in a line: Serum cholesterol levels post treatment. It counts as in vivo, NOD/SCID mice. As for the experimental part:
as §5

Series [4] relates to HT-29 cells. Description: HT-29 colorectal cancer xenograft in NOD/SCID mice: tumour size, weight, metastasis. Also noted: Tumour reduction / Tumour gain or reduction: concentration or dose not given beside the values. Particulars: for Average tumour size / Average tumour weight: group average, 4 mice, 3 000 mg/kg HPβCD, 10 mg/kg OXAL, 30 mg/kg 5FU i.p.; for Tumour reduction: tumour size; for Tumour reduction / Tumour gain or reduction: as compared to the untreated group; for Tumour gain or reduction: tumour weight. In kind it is in vivo. As for the experimental part:
as §5

Series [5] relates to HT-29 cells. Nature of the series: Immunofluorescence of EMT markers E-cadherin and vimentin in HT-29 cells. In kind it is cell-based. As for the experimental part:
as §1, §2, §3, §4

Series [6] has as its system multidrug resistance protein 1 (MDR1). Nature of the series: Vybrant MDR assay (calcein AM retention). Particulars: HT-29 cells treated with the FOLFOX chemotherapy cocktail; 1 mM MβCD, 10 mM HPβCD; preliminary data. In kind it is cell-based. As for the experimental part:
To assess the multi-drug resistant potential of cells pre- and post-EMT, the Vybrant® MDR Assay Kit (ThermoFisher Scientific, USA) was employed. This assay relies on the administration of an appropriate multidrug resistance protein 1 (MDR1) substrate, calcein acetoxymethyl ester (calcein AM) where drug-efflux potential is assessed by measuring the levels of intracellular calcein fluorescence. 10 000 cells were seeded per well in a 96-black walled plate. Following the 2-hour treatment period, cells were incubated with 0.25 μM Calcein-AM for 30 minutes at 37° C. Following this, two PBS washes were completed, and PBS administered to each well to ascertain fluorescence intensity. The Victor Nivo multi-mode microplate reader (Perkin Elmer, USA) was utilised with the excitation maximum set to 494 nm and the emission maximum set to 517 nm.
This can be attributed to alterations in lipid-raft membrane structure resulting in translocation of MDR1 to detergent soluble fractions which affects basal ATPase activity. This consequently affects the efflux potential of the MDR1 transporter. […] Fluorescence intensity (RFU) was quantified using the Victor Nivo multi-mode microplate reader (Perkin Elmer, USA) with the excitation maximum set to 494 nm and the emission maximum set to 517 nm.

Series [7] relates to NMuMg cells. Description: RT-qPCR of cholesterol-related genes in NMuMg cells. Particulars: NMuMg post-EMT. For orientation: Quantitative PCR measures a nucleic acid by following its amplification.
Method: Relative expression is presented as log 2 fold changes between conditions.
To delineate the molecular mechanism governing cholesterol-mediated EMT induction, RT-qPCR analysis of the major cholesterol-related genes were assessed in the NMuMg cell line. RNA was extracted using the Direct-Zol™ RNA MiniPrep kit (Zymo Research, Inqaba Biotec™, SA). RNA extraction was carried out as per the manufacturer's protocol. Total RNA of 1 μg was utilised for cDNA synthesis using the RevertAidFirst Strand cDNA Synthesis kit (Thermo Fisher Scientific, USA) and was carried out according to the manufacturer's protocol. qPCR was performed using the SensiFAST™ SYBR® No-ROX kit, utilising a 3-step cycle on the CFX96 Touch™ Real-Time PCR detection system (Bio-Rad).
Series [8] is described as follows: Toxicity of HPβCD compared to simvastatin.
Series [9] is described as follows: Serum AST and ALT as a measure of liver toxicity. Particulars: mouse, in vivo. As for the experimental part:
as §5, with “When mice were euthanized, serum was collected from whole blood samples and this was further used to test cholesterol levels, as well as Aspartate aminotransferase (AST) and Alanine aminotransferase (ALT) as a measure for liver toxicity. They were then perfused and all organs, including tumours, were harvested. All organs were snap frozen and stored at −80° C. Tumour samples were further stored in 10% neutral buffered formalin (4° C.) and RNA Later (−80° C.).” left out
Blood was collected post euthanization and serum was analysed for AST and ALT levels using the IDEXX Catalyst DX Chemistry Analyzer. […]

Setting [10] is: 10 ng/mL TGF-β for 48 hours vs control.
Setting [11] is: MCF-7, 150 μM CoCl2 for 48 hours vs control.
[12] abbreviates: HT-29, 50 ng/mL IL-6 for 24 hours vs control.
Setting [13] is: HT-29, post-EMT (IL-6), 2-hour treatment, 10 mM HPβCD, 1 mM MβCD.
Setting [14] is: MCF-7, post-EMT (CoCl2), 2-hour treatment, 10 mM HPβCD, 1 mM MβCD.
Where [15] appears, read: post-EMT (TGF-β), 2-hour treatment, 10 mM HPβCD, 1 mM MβCD.

For the compound “transforming growth factor beta 1 [TGF-β]”, in the series on NMuMg cells [1] (setting [10]), the “E-cadherin expression following EMT induction” value was “significantly decreased” and the “Vimentin expression following EMT induction” value was “significantly increased”.

As for `[Cl][Co][Cl]` [CoCl2, cobalt chloride], in the series with MCF-7 cells (setting [11]), the “E-cadherin expression following EMT induction” value was “significantly decreased” and the “Vimentin expression following EMT induction” value was “significantly increased”.

For the compound `O=C1[O][Pt]2([NH][C@@H]3CCCC[C@H]3[NH]2)[O]C1=O` [OXAL, Oxaliplatin], the “unexpected death of mice in treatment group” value in series [2] (6 treatments of OXAL alone, 10 mg/kg i.p.) came out at 50%. For the same compound, in series [2] (OXAL alone 6 treatments, OXAL with HPβCD all 12 treatments of the same dose), the “health outcome of treated mice” value is 2 died and 2 had to be euthanized. The “serum cholesterol levels (in words)” value in series [3] was “significantly higher”. In the series on HT-29 cells [4], the Average tumour size was determined as 1413 mm^3, the Average tumour weight turned out to be 1.6975 g, the Tumour reduction was -41.3% and the Tumour gain or reduction was -47.2%. For the same compound, the metastasis at dissection result in the series with HT-29 cells [4] (mouse, in vivo) is “metastasis almost throughout the body in one mouse”.

On to interleukin-6 [IL-6], for which, in the series with HT-29 cells [5] (setting [12]), the “E-cadherin expression following EMT induction” value was “significantly decreased” and the “Vimentin expression following EMT induction” value was “significantly increased”.

On to Methyl-β-cyclodextrin [MβCD], for which, in series [6], the “intracellular retention of fluorescent calcein” value was “increase”. Further, the “effect on cholesterol biosynthesis and influx (gene expression)” value in the series with NMuMg cells [7] (1 mM MβCD for 2 hours) is on record as “more significant effect”.

As for `O=c1[nH]cc(F)c(=O)[nH]1` [5FU, 5-Fluorouracil], in [3], the “serum cholesterol levels (in words)” value is listed as “significantly higher”. Also, in the series with HT-29 cells [4], the Average tumour size is on record as 841.4 mm^3, the Average tumour weight turned out to be 1.4475 g, the Tumour reduction was -65.1% and the Tumour gain or reduction was -55%.

For the compound 2-hydroxypropyl-β-cyclodextrin [HPβCD], in the series on HT-29 cells [5] (setting [13]), the “E-cadherin expression (immunofluorescence)” value is listed as “increase” and the “vimentin expression (immunofluorescence)” value is recorded as “decrease”. The “effect of HPβCD on toxicity of the co-administered chemotherapy” value in series [2] (3 000 mg/kg HPβCD i.p. with OXAL or 5FU) was “decreased the toxicity of OXAL; also recorded: reduced toxicity of OXAL; also recorded: reduce toxicity related to 5FU”. For the same compound, the “intracellular retention of fluorescent calcein” value in [6] is “increase”. Moreover, in series [8], the “toxicity compared to simvastatin” value is “low toxicity”. For the same compound, in [3] (untreated average 51 mg/dL), the “average level of serum cholesterol” value came out at 65.5 mg/dL. For the same compound, in the series on MCF-7 cells (setting [14]), the “E-cadherin expression (immunofluorescence)” value was “increase” and the “vimentin expression (immunofluorescence)” value is recorded as “decrease”. Besides, in [9], the “AST:ALT ratio” value was determined as 1.67 U/L and the “liver toxicity (in words)” value was “no observed liver toxicity”. In the series with NMuMg cells [7] (10 mM HPβCD, 10 μM simvastatin for 2 hours), the “effect on cholesterol efflux (gene expression)” value is “drastically affected”. In addition, in the series on HT-29 cells [4] (3 000 mg/kg HPβCD i.p.), the “average reduction in tumour size” value is recorded as about 17%. Moreover, the “tumour size, visually” value in the series on HT-29 cells [4] (FIG. 9) is given as “reduced”. Besides, in the series with HT-29 cells [4], the Average tumour size is 1983 mm^3, the Average tumour weight worked out at 3.5125 g, the Tumour reduction is -17.6% and the Tumour gain or reduction was 9.17%. In the series on NMuMg cells [1] (setting [15]), the “E-cadherin expression (immunofluorescence)” value was “increase” and the “vimentin expression (immunofluorescence)” value was “decrease”.
